From patent publication US20130288897A1, “SYNERGISTIC PESTICIDAL COMPOSITIONS” (Dow AgroSciences LLC, priority 2012, published 2013)
Where “and” joins values, the source holds several entries; their conditions need not be identical. Equal entries are not always repeated.

Experiments:
Format in all cases: in vivo
[1] = tested on: cotton aphid (CA) Aphis gossypii; experiment: Cotton aphid track-sprayer test on cotton: Compound A or imidacloprid with glufosinate (Liberty) and AMS (Example XVII); details: for % control / % control Negatives to zero / Colby Predicted Values: Rep 1-6
Procedure: (§1) Glyphosate resistant cotton plants (Gossypium hirsutum, cv ‘DP493’) were trimmed to 1 true leaf and infested with mixed stages of cotton aphid (CA) Aphis gossypii 24 h prior to application. Mixed developmental stage CA were infested onto the upper surface of each treated leaf by transferring infested foliage from an insectary colony. Each plant was infested with approximately equal numbers of CA based on visual estimation of aphid density on the infested material. Infested plants were held in the growth chamber (L:D 16:8 and 25° C.). Glufosinate (Liberty®, Bayer CropScience, Monheim am Rhein, Germany) was mixed with water at a rate equivalent to 5 ml/L (0.4 qt/Ac). […] High rate Compound A concentrations were created by diluting Compound A technical material with acetone to achieve a 10 ppm solution. […] […] […] Nozzle height above the canopy was held constant at ca. 30 cm. Plants were evaluated after 3 days from the time of infestation by counting all live cotton aphids on each plant.
TABLE 6 contains the calculated Colby values for combinations of treatments as well as the outcome of statistical evaluations between predicted (Colby) and actual measured values. These T-test statistics were only calculated for the 0.2 and 0.05 g/Ha rates. […] These same trends were apparent when Compound A was applied with both glufosinate and AMS.

[2] = tested on: cotton aphid (CA) Aphis gossypii; experiment: Cotton aphid track-sprayer test on cotton: Compound A or imidacloprid with Glyphomax Plus (glyphosate) and AMS (Example XV); details: Rep 1-5
Procedure: Glyphosate resistant cotton plants (Gossypium hirsutum, cv ‘DP493’) were trimmed to 1 true leaf and infested with mixed stages of cotton aphid (CA) Aphis gossypii 24 h prior to application. Mixed developmental stage CA were infested onto the upper surface of each treated leaf by transferring infested foliage from an insectary colony. Each plant was infested with approximately equal numbers of CA based on visual estimation of aphid density on the infested material. Infested plants were held in the growth chamber (L:D 16:8 and 25° C.). Glyphosate (Glyphomax Plus, Dow AgroSciences, LLC, Indianapolis, Ind.) was mixed with water at a rate equivalent to 32 oz/Ac/20 gallons. […] High rate Compound A concentrations were created by diluting Compound A technical material with acetone to achieve a 10 ppm solution. […] When applied through a track sprayer calibrated to 200 L/Ha these concentrations generated use rates of 0.2, 0.04 and 0.008 g/Ha. […] Nozzle height above the canopy was held constant at ca. 30 cm. Plants were evaluated after 3 days from the time of infestation by counting all live cotton aphids on each plant.
For the purposes of this experiment, the compositions having lower rates of the insecticide were not analyzed. Percent control for all treatments was calculated using the rep average for the untreated plants. […] For all tests, measured efficacy (% Control) data were compared to calculated Colby values (Colby, S. R. 1967. Calculating Synergistic and Antagonistic Responses of Herbicide Combinations. Weeds 15:20-22) using a 2 sided T-test (Minitab). […] The formula used to calculate the Colby value for mixtures of Compound A and either herbicide or AMS was:
The formula was adapted for compositions including Compound A, herbicide and AMS as follows: […]

[3] = tested on: cotton aphid (CA) Aphis gossypii; experiment: Cotton aphid track-sprayer test on cotton: Compound A or imidacloprid with Durango (glyphosate) or Durango Blank and AMS (Example XVI); details: for % Control (Negatives to zero) Ave / % control Ave / Colbv predicted values Ave: average of 5 reps
Procedure: as §1, with “C.). Glyphosate (Durango®, Dow AgroSciences, LLC, Indianapolis, Ind.)” for “C.). Glufosinate (Liberty®, Bayer CropScience, Monheim am Rhein, Germany)”, “to 15” for “to 5”, “ml/L (1.2” for “ml/L (0.4”, “qt/Ac). […] A glyphosate free formulation of Durango® was prepared using these same mixing instructions.” for “qt/Ac).”
[…] Percent control for all treatments was calculated using the rep average for the untreated plants.

[4] = 0.0125 g In./Ha + glufosinate 0.005 ml/ml + AMS 18 mg/ml
[5] = 0.05 g In./Ha + glufosinate 0.005 ml/ml
[6] = 0.05 g In./Ha + glufosinate 0.005 ml/ml + AMS 18 mg/ml
[7] = 0.2 g In./Ha + glufosinate 0.005 ml/ml
[8] = 0.2 g In./Ha + glufosinate 0.005 ml/ml + AMS 18 mg/ml
[9] = 0.2 g In./Ha, no glufosinate, no AMS
[10] = 0.2 g insecticide/Ha with Glyphomax Plus 0.0125 ml/ml + AMS 18 mg/ml
[11] = 0.2 g insecticide/Ha with Glyphomax Plus 0.0125 ml/ml
[12] = 0.0125 g insecticide/Ha with Durango 0.015 ml/ml + AMS 18 g/L
[13] = 0.0125 g insecticide/Ha with Durango 0.015 ml/ml
[14] = 0.0125 g insecticide/Ha with Durango Blank 0.015 ml/ml + AMS 18 g/L
[15] = 0.0125 g insecticide/Ha with Durango Blank 0.015 ml/ml
[16] = 0.05 g insecticide/Ha with Durango 0.015 ml/ml + AMS 18 g/L, Rep 1-5
[17] = 0.05 g insecticide/Ha with Durango 0.015 ml/ml + AMS 18 g/L
[18] = 0.05 g insecticide/Ha with Durango 0.015 ml/ml
[19] = 0.05 g insecticide/Ha with Durango Blank 0.015 ml/ml + AMS 18 g/L
[20] = 0.05 g insecticide/Ha with Durango Blank 0.015 ml/ml
[21] = 0.2 g insecticide/Ha with Durango 0.015 ml/ml + AMS 18 g/L, Rep 1-5
[22] = 0.2 g insecticide/Ha with Durango 0.015 ml/ml + AMS 18 g/L
[23] = 0.2 g insecticide/Ha with Durango 0.015 ml/ml, Rep 1-5
[24] = 0.2 g insecticide/Ha with Durango 0.015 ml/ml
[25] = 0.2 g insecticide/Ha with Durango Blank 0.015 ml/ml + AMS 18 g/L, Rep 1-5
[26] = 0.2 g insecticide/Ha with Durango Blank 0.015 ml/ml + AMS 18 g/L
[27] = 0.2 g insecticide/Ha with Durango Blank 0.015 ml/ml

SMILES: CC(c1ccc(C(F)(F)F)nc1)S(C)(=O)=NC#N (stereo not shown) [Compound A, [1-(6-Trifluoromethylpyridin-3-yl)ethyl](methyl)-oxido-λ^4-sulfanylidenecyanamide]
- % control AVE ([1]; 0.0125 g In./Ha + glufosinate 0.005 ml/ml): 57.9%
- % control AVE [1, 4]: 85.5%
- Colby Predicted Values Ave ([1]; 0.0125 g In./Ha, combination with glufosinate): 48.7
- Colby Predicted Values Ave ([1]; 0.0125 g In./Ha, combination with glufosinate and AMS): 56.8
- % control AVE ([1]; 0.0125 g In./Ha, no glufosinate, no AMS): 22.9%
- % control AVE [1, 5]: 82.1%
- % control AVE [1, 6]: 91.8%
- Colby Predicted Values Ave ([1]; 0.05 g In./Ha, combination with glufosinate): 63.4
- Colby Predicted Values Ave ([1]; 0.05 g In./Ha, combination with glufosinate and AMS): 67.4
- % control AVE ([1]; 0.05 g In./Ha, no glufosinate, no AMS): 60.2%
- % control AVE [1, 7]: 95.3%
- % control AVE [1, 8]: 96.6%
- Colby Predicted Values Ave ([1]; 0.2 g In./Ha, combination with glufosinate): 85.7
- Colby Predicted Values Ave ([1]; 0.2 g In./Ha, combination with glufosinate and AMS): 87.7
- % control AVE [1, 9]: 87.0%
- % control [1, 4]: 94.7% and 89.7% and 68.6% and 90.7% and 83.8% and 95.5%
- % control Negatives to zero [1, 4]: 94.7% and 89.7% and 68.6% and 90.7% and 83.8% and 93.9%
- % control [1, 5]: 81.3% and 80.2% and 72.9% and 99.2% and 77.0% and 89.4%
- % control Negatives to zero [1, 5]: 81.3% and 80.2% and 72.9% and 99.2% and 77.0% and 89.4%
- % control [1, 6]: 89.3% and 96.6% and 77.1% and 97.5% and 98.6% and 80.3%
- % control Negatives to zero [1, 6]: 89.3% and 96.6% and 77.1% and 97.5% and 98.6% and 80.3%
- % control [1, 7]: 97.3% and 95.7% and 93.2% and 94.6% and 86.4%
- % control Negatives to zero [1, 7]: 97.3% and 95.7% and 93.2% and 94.6% and 86.4%
- % control [1, 8]: 98.7% and 94.0% and 94.3% and 97.5% and 98.6% and 93.9%
- % control Negatives to zero [1, 8]: 98.7% and 94.0% and 94.3% and 97.5% and 98.6% and 93.9%
- Colby Predicted Values ([1]; 0.2 g In./Ha, first block of lines (combination with glufosinate)): 77.3 and 91.2 and 95.9 and 90.1 and 91.9 and 68.2
- % control [1, 9]: 77.3% and 87.9% and 91.4% and 86.4% and 91.9% and 68.2%
- Colby Predicted Values ([1]; 0.2 g In./Ha, second block of lines (combination with glufosinate and AMS)): 90.0 and 93.9 and 95.3 and 87.0 and 91.9 and 68.2
- % control Negatives to zero [2, 10]: 94.9% and 100.0%
- Calculated Colby values [2, 10]: 71.7 and 78.5 and 75.1 and 77.5 and 71.8
- percent control [2, 10]: 100.0% and 94.9%
- % control Negatives to zero [2, 11]: 96.2% and 100.0% and 91.7% and 98.1%
- percent control [2, 11]: 100.0% and 91.7% and 98.1% and 96.2%
- Calculated Colby values ([2]; 0.2 g insecticide/Ha with Glyphomax Plus 0.0125 ml/ml, expected additive control): 71.7 and 78.5 and 75.1 and 75.3 and 69.3
- CA Counts ([2]; 0.2 g insecticide/Ha, no herbicide, no AMS, live aphids per plant after 3 days): 24 and 20 and 12 and 15 and 13
- percent control ([2]; 0.2 g insecticide/Ha, no herbicide, no AMS, vs rep average of untreated plants): 71.7% and 78.5% and 75.1% and 75.3% and 69.3%
- % Control (Negatives to zero) Ave [3, 12]: 23.8%
- % control Ave [3, 12]: 11.7%
- Colbv predicted values Ave [3, 12]: 48.0
- % Control (Negatives to zero) Ave [3, 13]: 17.4%
- % control Ave [3, 13]: 0.5%
- Colbv predicted values Ave [3, 13]: 36.6
- % Control (Negatives to zero) Ave [3, 14]: 26.5%
- % control Ave [3, 14]: 25.1%
- Colbv predicted values Ave [3, 14]: 56.2
- % Control (Negatives to zero) Ave [3, 15]: 15.8%
- % control Ave [3, 15]: −22.7%
- Colbv predicted values Ave [3, 15]: 36.6
- % control Ave ([3]; 0.0125 g insecticide/Ha, no herbicide, no AMS): 5.5%
- % control [3, 16]: 68.6% and 52.3% and 68.2% and 65.8% and 35.3%
- % control Negatives to zero [3, 16]: 68.6% and 52.3% and 68.2% and 65.8% and 35.3%
- CA Counts [3, 16]: 37 and 49 and 36 and 25 and 48
- % Control (Negatives to zero) Ave [3, 17]: 58.0%
- % control Ave [3, 17]: 58.0%
- Colbv predicted values Ave [3, 17]: 55.3
- % Control (Negatives to zero) Ave [3, 18]: 14.2%
- % control Ave [3, 18]: 9.1%
- Colbv predicted values Ave [3, 18]: 45.2
- % Control (Negatives to zero) Ave [3, 19]: 37.9%
- % control Ave [3, 19]: 35.5%
- Colbv predicted values Ave [3, 19]: 56.9
- % Control (Negatives to zero) Ave [3, 20]: 36.1%
- % control Ave [3, 20]: 36.1%
- Colbv predicted values Ave [3, 20]: 43.6
- % control Ave ([3]; 0.05 g insecticide/Ha, no herbicide, no AMS): 31.8%
- % control [3, 21]: 97.5% and 100.0%
- % control Negatives to zero [3, 21]: 97.5% and 100.0%
- % Control (Negatives to zero) Ave [3, 22]: 99.5%
- % control Ave [3, 22]: 99.5%
- Colbv predicted values Ave [3, 22]: 72.8
- % control [3, 23]: 89.8% and 96.1% and 76.1% and 91.8% and 96.0%
- % control Negatives to zero [3, 23]: 89.8% and 96.1% and 76.1% and 91.8% and 96.0%
- % Control (Negatives to zero) Ave [3, 24]: 90.0%
- % control Ave [3, 24]: 90.0%
- Colbv predicted values Ave [3, 24]: 70.5
- % control [3, 25]: 66.9% and 97.1% and 76.1% and 79.5% and 74.4%
- % control Negatives to zero [3, 25]: 68.9% and 97.1% and 76.1% and 79.5% and 74.4%
- Colbv predicted values [3, 25]: 97.5 and 77.2 and 97.3 and 72.7 and 71.7
- % Control (Negatives to zero) Ave [3, 26]: 78.8%
- % control Ave [3, 26]: 78.8%
- Colbv predicted values Ave [3, 26]: 83.3
- % Control (Negatives to zero) Ave [3, 27]: 60.1%
- % control Ave [3, 27]: 60.1%
- Colbv predicted values Ave [3, 27]: 71.5
- % control Ave ([3]; 0.2 g insecticide/Ha, no herbicide, no AMS): 50.2%
